pIC50: −log10 of the molar value.
Molecular target: T1, human Npt2a (Homo sapiens, UniProt Q06495)
T1 construct: expressed in transfected cells
T1 sequence (Q06495 1-639): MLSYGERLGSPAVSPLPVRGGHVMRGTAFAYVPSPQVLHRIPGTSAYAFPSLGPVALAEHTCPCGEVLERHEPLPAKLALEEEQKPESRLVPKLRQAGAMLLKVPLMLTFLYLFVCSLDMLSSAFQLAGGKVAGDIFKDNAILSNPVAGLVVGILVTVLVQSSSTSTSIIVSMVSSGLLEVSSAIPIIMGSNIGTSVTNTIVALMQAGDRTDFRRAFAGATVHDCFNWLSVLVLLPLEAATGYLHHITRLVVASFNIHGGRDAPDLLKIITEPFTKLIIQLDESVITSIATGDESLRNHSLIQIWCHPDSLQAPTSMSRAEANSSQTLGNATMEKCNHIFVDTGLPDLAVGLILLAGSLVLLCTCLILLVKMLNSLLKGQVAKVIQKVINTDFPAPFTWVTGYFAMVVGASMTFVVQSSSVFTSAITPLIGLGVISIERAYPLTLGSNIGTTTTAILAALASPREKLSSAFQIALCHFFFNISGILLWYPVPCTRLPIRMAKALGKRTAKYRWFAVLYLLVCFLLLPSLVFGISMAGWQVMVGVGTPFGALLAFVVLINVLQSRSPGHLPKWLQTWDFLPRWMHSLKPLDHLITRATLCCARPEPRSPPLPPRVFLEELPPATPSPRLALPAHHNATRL
Assay: Npt2a activity cell based assay, membrane potential dye, CHO T-REx hNpt2a cells
Details: doxycycline-induced, depolarization by sodium phosphate influx, average or median values if tested more than once
Outline: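 Cells were doxycycline-induced CHO T-REx hNpt2a, dye-loaded and pretreated 5 min at RT with 1 nM–50 μM compound in Na-free pH 7.4 buffer. IC50 was fit to the post/pre-trigger fluorescence ratio.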

Row | Structure (SMILES) | pIC50
1 | Cc1nn(-c2ccc(F)cc2)c(C)c1Nc1cc(-n2nc3ccccc3c2C)ncn1 [Example 103, N-[1-(4-fluorophenyl)-3,5-dimethyl-1H-pyrazol-4-yl]-6-(3-methyl-2H-indazol-2-yl)pyrimidin-4-amine] | 7.19
2 | Cc1cc(C)n(-c2cc(Nc3nn(C)c(-c4ccc(OC(F)(F)F)cc4)c3C)ncn2)n1 [Example 98, 6-(3,5-dimethyl-1H-pyrazol-1-yl)-N-{1,4-dimethyl-5-[4-(trifluoromethoxy)phenyl]-1H-pyrazol-3-yl}pyrimidin-4-amine] | 7.29
3 | Cc1nn(-c2cc(Nc3c(C)c(-c4ccc(C#N)cc4)nn3CC3CC3)ncn2)c(C)c1C(C)O (racemic) [Example 341, (±)-4-{1-(cyclopropylmethyl)-5-[(6-{4-[1-hydroxyethyl]-3,5-dimethyl-1H-pyrazol-1-yl}pyrimidin-4-yl)amino]-4-methyl-1H-pyrazol-3-yl}benzonitrile] | 7.77
4 | CCOC(=O)c1c(C)nn(-c2cc(Nc3c(C)c(-c4ccc(C(F)F)cc4)nn3CCOC)ncn2)c1C [Example 546, ethyl 1-[6-({3-[4-(difluoromethyl)phenyl]-1-(2-methoxyethyl)-4-methyl-1H-pyrazol-5-yl}amino)pyrimidin-4-yl]-3,5-dimethyl-1H-pyrazole-4-carboxylate] | 7.85
5 | CCc1c(Nc2cc(-n3nc4c(c3C)CCCC4)ncn2)nn(C)c1-c1ccc(F)cc1 [Example 46, N-[4-ethyl-5-(4-fluorophenyl)-1-methyl-1H-pyrazol-3-yl]-6-(3-methyl-4,5,6,7-tetrahydro-2H-indazol-2-yl)pyrimidin-4-amine] | 8.19
6 | COc1c(-c2ccc(C#N)cc2)nn(C)c1Nc1cc(-n2nc(C)c(OC)c2C)ncn1 [Example 462, 4-(4-methoxy-5-{[6-(4-methoxy-3,5-dimethyl-1H-pyrazol-1-yl)pyrimidin-4-yl]amino}-1-methyl-1H-pyrazol-3-yl)benzonitrile] | 7.60
7 | Cc1cc(C)n(-c2cc(Nc3n[nH]c(-c4ccc(C#N)cc4)c3C)ncn2)n1 [Example 135, 4-(3-{[6-(3,5-dimethyl-1H-pyrazol-1-yl)pyrimidin-4-yl]amino}-4-methyl-1H-pyrazol-5-yl)benzonitrile] | 6.15
8 | Cc1c(-c2ccc(C#N)cc2)nn(CC2CC2)c1Nc1cc(-n2nc(C)c3ncccc32)ncn1 [Example 232, 4-[1-(cyclopropylmethyl)-4-methyl-5-{[6-(3-methyl-1H-pyrazolo[4,3-b]pyridin-1-yl)pyrimidin-4-yl]amino}-1H-pyrazol-3-yl]benzonitrile] | 8.22
9 | Cc1cc(C(C)(C)O)n(-c2cc(Nc3nn(C)c(-c4ccc(F)cc4)c3C)ncn2)n1 [Example 262, 2-[1-(6-{[5-(4-fluorophenyl)-1,4-dimethyl-1H-pyrazol-3-yl]amino}pyrimidin-4-yl)-3-methyl-1H-pyrazol-5-yl]propan-2-ol] | 7.48
10 | CCOC(=O)c1c(C)nn(-c2cc(Nc3c(CC)c(-c4ccc(F)cc4)nn3C)ncn2)c1C [Example 155, ethyl 1-(6-{[4-ethyl-3-(4-fluorophenyl)-1-methyl-1H-pyrazol-5-yl]amino}pyrimidin-4-yl)-3,5-dimethyl-1H-pyrazole-4-carboxylate] | 8.05
11 | CCOC(=O)c1c(C)nn(-c2cc(Nc3c(Cl)c(-c4ccccc4)nn3C)ncn2)c1C [Example 79, ethyl 1-{6-[(4-chloro-1-methyl-3-phenyl-1H-pyrazol-5-yl)amino]pyrimidin-4-yl}-3,5-dimethyl-1H-pyrazole-4-carboxylate] | 7.51
12 | CCc1c(-c2ccc(C#N)cc2)nn(CC2CC2)c1Nc1cc(-n2nc(C)c(Cl)c2C(F)F)ncn1 [Example 164, 4-[5-({6-[4-chloro-5-(difluoromethyl)-3-methyl-1H-pyrazol-1-yl]pyrimidin-4-yl}amino)-1-(cyclopropylmethyl)-4-ethyl-1H-pyrazol-3-yl]benzonitrile] | 7.96
13 | COc1c(C)nn(-c2cc(Nc3c(C)c(-c4ccc(C(F)F)nc4)nn3CC3CC3)ncn2)c1C [Example 510, N-{1-(cyclopropylmethyl)-3-[6-(difluoromethyl)pyridin-3-yl]-4-methyl-1H-pyrazol-5-yl}-6-(4-methoxy-3,5-dimethyl-1H-pyrazol-1-yl)pyrimidin-4-amine] | 6.72
14 | Cc1cc(C)n(-c2cc(Nc3c(C4CC4)c(-c4ccc(F)cc4)nn3C)ncn2)n1 [Example 43, N-[4-cyclopropyl-3-(4-fluorophenyl)-1-methyl-1H-pyrazol-5-yl]-6-(3,5-dimethyl-1H-pyrazol-1-yl)pyrimidin-4-amine] | 6.84
15 | Cc1cc(C(F)F)n(-c2cc(Nc3c(C)nn(-c4ccc(F)cc4)c3C)ncn2)n1 [Example 93, 6-[5-(difluoromethyl)-3-methyl-1H-pyrazol-1-yl]-N-[1-(4-fluorophenyl)-3,5-dimethyl-1H-pyrazol-4-yl]pyrimidin-4-amine] | 7.54
16 | CCOC(=O)c1c(C)nn(-c2cc(Nc3c(OC)c(-c4ccc(C#N)cc4)nn3CC3CC3)ncn2)c1C [Example 320, ethyl 1-(6-{[3-(4-cyanophenyl)-1-(cyclopropylmethyl)-4-methoxy-1H-pyrazol-5-yl]amino}pyrimidin-4-yl)-3,5-dimethyl-1H-pyrazole-4-carboxylate] | 7.15
17 | CCc1c(Nc2cc(-n3nc(C)c(CN4CCN(C)CC4)c3C)ncn2)nn(C)c1-c1ccc(F)cc1 [Example 297, 6-{3,5-dimethyl-4-[(4-methylpiperazin-1-yl)methyl]-1H-pyrazol-1-yl}-N-[4-ethyl-5-(4-fluorophenyl)-1-methyl-1H-pyrazol-3-yl]pyrimidin-4-amine] | 5.84
18 | Cc1nn(-c2cc(Nc3[nH]nc(-c4ccc(F)cc4)c3C3CC3)ncn2)c(C)c1Cl [Example 8, 6-(4-chloro-3,5-dimethyl-1H-pyrazol-1-yl)-N-[4-cyclopropyl-3-(4-fluorophenyl)-1H-pyrazol-5-yl]pyrimidin-4-amine] | 7.42
19 | COC(C)c1c(C)nn(-c2cc(Nc3c(C)c(-c4ccc(F)cc4)nn3CC3CC3)ncn2)c1C (single isomer, unassigned) [Example 328, N-[1-(cyclopropylmethyl)-3-(4-fluorophenyl)-4-methyl-1H-pyrazol-5-yl]-6-{4-[1-methoxyethyl]-3,5-dimethyl-1H-pyrazol-1-yl}pyrimidin-4-amine] | 8.40
20 | Cc1nn(-c2cc(Nc3c(C)c(-c4ccc(C(F)F)nc4)nn3C)ncn2)c(C)c1C(F)(F)F [Example 473, N-{3-[6-(difluoromethyl)pyridin-3-yl]-1,4-dimethyl-1H-pyrazol-5-yl}-6-[3,5-dimethyl-4-(trifluoromethyl)-1H-pyrazol-1-yl]pyrimidin-4-amine] | 6.80
21 | Cc1cc(C)n(-c2cc(Nc3nn(C)c(-c4ccc(F)cc4)c3Cl)ncn2)n1 [Example 91, N-[4-chloro-5-(4-fluorophenyl)-1-methyl-1H-pyrazol-3-yl]-6-(3,5-dimethyl-1H-pyrazol-1-yl)pyrimidin-4-amine] | 8.24
22 | CCOC(=O)Cc1c(C)nn(-c2cc(Nc3c(C)nn(-c4ccc(C#N)cc4)c3C)ncn2)c1C [Example 257, ethyl [1-(6-{[1-(4-cyanophenyl)-3,5-dimethyl-1H-pyrazol-4-yl]amino}pyrimidin-4-yl)-3,5-dimethyl-1H-pyrazol-4-yl]acetate] | 7.13
23 | COc1ccc(-c2nn(CC3CC3)c(Nc3cc(-n4nc(C)c(Cl)c4C)ncn3)c2C)cn1 [Example 498, 6-(4-chloro-3,5-dimethyl-1H-pyrazol-1-yl)-N-[1-(cyclopropylmethyl)-3-(6-methoxypyridin-3-yl)-4-methyl-1H-pyrazol-5-yl]pyrimidin-4-amine] | 5.88
24 | COC(C)c1c(C)nn(-c2cc(Nc3c(C)c(-c4ccc(C#N)cc4)nn3C)ncn2)c1C (single isomer, unassigned) [Example 339, 4-{5-[(6-{4-[1-methoxyethyl]-3,5-dimethyl-1H-pyrazol-1-yl}pyrimidin-4-yl)amino]-1,4-dimethyl-1H-pyrazol-3-yl}benzonitrile] | 8.10
25 | Cc1cc(C)n(-c2cc(Nc3c(C)c(-c4ccc(F)cc4)nn3CC(C)(O)C3CC3)ncn2)n1 (racemic) [Example 325, (±)-2-cyclopropyl-1-[5-{[6-(3,5-dimethyl-1H-pyrazol-1-yl)pyrimidin-4-yl]amino}-3-(4-fluorophenyl)-4-methyl-1H-pyrazol-1-yl]propan-2-ol (Racemate)] | 5.96
26 | CC(=O)c1c(Nc2cc(-n3nc(C)cc3C)ncn2)nn(C)c1-c1ccc(F)cc1 [Example 82, 1-[3-{[6-(3,5-dimethyl-1H-pyrazol-1-yl)pyrimidin-4-yl]amino}-5-(4-fluorophenyl)-1-methyl-1H-pyrazol-4-yl]ethanone] | 5.82
27 | Cc1nn(-c2cc(Nc3nn(C)c(-c4ccc(F)cc4)c3C3CC3)ncn2)c(C)c1Cl [Example 42, 6-(4-chloro-3,5-dimethyl-1H-pyrazol-1-yl)-N-[4-cyclopropyl-5-(4-fluorophenyl)-1-methyl-1H-pyrazol-3-yl]pyrimidin-4-amine] | 8.12

Reference: patent US11208400B2, “Substituted 6-(1H-pyrazol-1-yl)pyrimidin-4-amine derivatives and uses thereof” (Bayer Aktiengesellschaft, priority 2016, dated 2021)
